In ChEMBL document CHEMBL5055630, “Design, synthesis and biological evaluation of indole-based [1,2,4]triazolo[4,3-a] pyridine derivatives as novel microtubule polymerization inhibitors” (Eur J Med Chem, 2021):

Key:
Assay type in all cases: functional, cell-based
HCT-116 = experiment: Antiproliferative activity against human HCT-116 assessed as reduction in cell viability measured after 48 hrs by MTT assay; conditions: HCT-116, 48 h
A549 = experiment: Antiproliferative activity against human A549 assessed as reduction in cell viability measured after 48 hrs by MTT assay; conditions: A549, 48 h
MCF7 = experiment: Antiproliferative activity against human MCF7 assessed as reduction in cell viability measured after 48 hrs by MTT assay; conditions: MCF7, 48 h
HeLa = experiment: Antiproliferative activity against human HeLa assessed as reduction in cell viability measured after 48 hrs by MTT assay

Structure (SMILES) | IC50 (HCT-116) | IC50 (A549) | IC50 (MCF7) | IC50 (HeLa)
COc1cc(-c2nnc3c(OC4COC4)cc(-c4ccc5c(ccn5C)c4)cn23)cc(OC)c1OC | 1290 nM | 516 nM | 1900 nM | 214 nM
CCOc1cc(-c2ccc3c(ccn3C)c2)cn2c(-c3cc(OC)c(OC)c(OC)c3)nnc12 | 228 nM | 334 nM | 140 nM | 210 nM
COc1cc(-c2nnc3c(OC(C)C)cc(-c4ccc5[nH]ccc5c4)cn23)cc(OC)c1OC | 939 nM | 1250 nM | 1020 nM | 261 nM
COc1cc(-c2cc(OC)c3nnc(-c4ccc5[nH]ccc5c4)n3c2)cc(OC)c1OC | > 10000 nM | > 10000 nM | > 10000 nM | > 10000 nM
CC(=O)O[C@H]1C(=O)[C@@]2(C)[C@H]([C@H](OC(=O)c3ccccc3)[C@]3(O)C[C@H](OC(=O)[C@H](O)[C@@H](NC(=O)c4ccccc4)c4ccccc4)C(C)=C1C3(C)C)[C@]1(OC(C)=O)CO[C@@H]1C[C@@H]2O [PACLITAXEL] | 21 nM | 15 nM | – | 8 nM
COc1cc(-c2nnc3c(OCC(F)(F)F)cc(-c4ccc5c(ccn5C)c4)cn23)cc(OC)c1OC | 483 nM | 614 nM | 382 nM | 199 nM
COc1cc(-c2nnc3c(OC)cc(-c4ccc5[nH]cc(C=O)c5c4)cn23)cc(OC)c1OC | > 10000 nM | > 10000 nM | > 10000 nM | > 10000 nM
COc1cc(-c2nnc3c(OC)cc(-c4ccc5c(c4)c(C=O)cn5C)cn23)cc(OC)c1OC | 1800 nM | 3080 nM | 1120 nM | 820 nM
CCOc1cc(-c2ccc3[nH]c4ccccc4c3c2)cn2c(-c3cc(OC)c(OC)c(OC)c3)nnc12 | 2420 nM | 922 nM | 295 nM | 472 nM
CCOc1cc(-c2ccc3cc[nH]c3c2)cn2c(-c3cc(OC)c(OC)c(OC)c3)nnc12 | 1340 nM | 626 nM | 334 nM | 272 nM
COc1cc2c(c(OC)c1OC)-c1ccc(OC)c(=O)cc1[C@@H](NC(C)=O)CC2 [COLCHICINE] | 83 nM | 111 nM | 48 nM | 103 nM
COc1cc(-c2nnc3c(OC4CN(C(C)(C)C)C4)cc(-c4ccc5[nH]ccc5c4)cn23)cc(OC)c1OC | > 10000 nM | > 10000 nM | > 10000 nM | > 10000 nM
C=C(c1cc(OC)c(OC)c(OC)c1)c1ccc2c(c1)c1ccccc1n2C | 1540 nM | 478 nM | 5490 nM | 3970 nM
CCOc1cc(-c2ccc3c(c2)c2ccccc2n3C)cn2c(-c3cc(OC)c(OC)c(OC)c3)nnc12 | 386 nM | 901 nM | 303 nM | 350 nM
CCOc1cc(-c2ccc3ccn(C)c3c2)cn2c(-c3cc(OC)c(OC)c(OC)c3)nnc12 | 291 nM | 349 nM | 239 nM | 240 nM
COc1cc(-c2nnc3c(OC4CCC4)cc(-c4ccc5[nH]ccc5c4)cn23)cc(OC)c1OC | 694 nM | 232 nM | 267 nM | 142 nM
COc1cc(-c2nnc3c(OC4CCC4)cc(-c4ccc5c(ccn5C)c4)cn23)cc(OC)c1OC | 750 nM | 176 nM | 125 nM | 177 nM
CCCN1CC(Oc2cc(-c3ccc4c(ccn4C)c3)cn3c(-c4cc(OC)c(OC)c(OC)c4)nnc23)C1 | 675 nM | 234 nM | 378 nM | 211 nM
COc1cc(-c2nnc3c(OC4COC4)cc(-c4ccc5[nH]ccc5c4)cn23)cc(OC)c1OC | 5370 nM | 9810 nM | 2470 nM | 2780 nM
COc1cc(-c2nnc3c(OC)cc(-c4ccc5[nH]ccc5c4)cn23)cc(OC)c1OC | 108 nM | 167 nM | 80 nM | 85 nM
